Measurements taken from US8937065B2, “Compositions and methods for modulating a kinase” (Clevexel Pharma, priority 2011, dated 2015).
Converted amounts (≈) assume the structure as drawn.

Experiments:
[1] = tested on: IL-2-stimulated STAT5 activity in CTLL-2 cells; experiment: IL-2-stimulated STAT5 activity in CTLL-2 cells (Irf1-bla CTLL-2); assay type: cell-based; settings: Mus musculus, mCTLL-2, IL-2 stimulated, read-out: IC50 T cells mechanism-based: mCTLL-2 IL-2 Stimulated STAT5 activity
Procedure: Mechanism-based inhibition assays using compound 7A (Table 1) were performed using GeneBLAzer® Technology (Invitrogen Corporation), according to manufacturer specifications. Briefly, GeneBLAzer® Technology uses a mammalian-optimized Beta-lactamase reporter gene (bla) combined with a FRET-enabled substrate to provide reliable and sensitive detection in intact cells. Cells were loaded with an engineered fluorescent substrate containing two fluorophores, coumarin and fluorescein. Without bla expression, the substrate molecule remains intact. In this state, excitation of the coumarin results in fluorescence resonance energy transfer to the fluorescein moiety and emission of green light. […] Excitation of the coumarin in the presence of Beta-lactamase activity results in a blue fluorescence signal. […]
An activator assay screen was run to obtain the EC80 concentration of the known activator to add in step 3. • 1. […] 4 μL of the EC80 concentration of activator, as determined in an Activator assay, was added to all wells containing compound and known inhibitor to bring the final assay volume to 40 μL. • 4. […] The assay plate was read on a fluorescence plate reader (Tecan Safire) and the data is analyzed. […]
Irf1-bla CTLL-2 cells were thawed and prepared as described above for the Activator Screen. […] The plate was read on a fluorescence plate reader.

CYP = CYP inhibition; assay type: in vitro ADME
Solubility, turbidity = assay type: physicochemical; settings: kinetic from dmso stock
JAK3 = biological target: T1, JAK3 (Homo sapiens, UniProt P52333); experiment: JAK3 enzymatic activity assay (Z'-LYTE Biochemical Kinase Assay, 2 hr preincubation at 4° C.); settings: cell-free
T1 construct: purchased Invitrogen, Madison, Wis
T1 sequence (P52333 1-1124): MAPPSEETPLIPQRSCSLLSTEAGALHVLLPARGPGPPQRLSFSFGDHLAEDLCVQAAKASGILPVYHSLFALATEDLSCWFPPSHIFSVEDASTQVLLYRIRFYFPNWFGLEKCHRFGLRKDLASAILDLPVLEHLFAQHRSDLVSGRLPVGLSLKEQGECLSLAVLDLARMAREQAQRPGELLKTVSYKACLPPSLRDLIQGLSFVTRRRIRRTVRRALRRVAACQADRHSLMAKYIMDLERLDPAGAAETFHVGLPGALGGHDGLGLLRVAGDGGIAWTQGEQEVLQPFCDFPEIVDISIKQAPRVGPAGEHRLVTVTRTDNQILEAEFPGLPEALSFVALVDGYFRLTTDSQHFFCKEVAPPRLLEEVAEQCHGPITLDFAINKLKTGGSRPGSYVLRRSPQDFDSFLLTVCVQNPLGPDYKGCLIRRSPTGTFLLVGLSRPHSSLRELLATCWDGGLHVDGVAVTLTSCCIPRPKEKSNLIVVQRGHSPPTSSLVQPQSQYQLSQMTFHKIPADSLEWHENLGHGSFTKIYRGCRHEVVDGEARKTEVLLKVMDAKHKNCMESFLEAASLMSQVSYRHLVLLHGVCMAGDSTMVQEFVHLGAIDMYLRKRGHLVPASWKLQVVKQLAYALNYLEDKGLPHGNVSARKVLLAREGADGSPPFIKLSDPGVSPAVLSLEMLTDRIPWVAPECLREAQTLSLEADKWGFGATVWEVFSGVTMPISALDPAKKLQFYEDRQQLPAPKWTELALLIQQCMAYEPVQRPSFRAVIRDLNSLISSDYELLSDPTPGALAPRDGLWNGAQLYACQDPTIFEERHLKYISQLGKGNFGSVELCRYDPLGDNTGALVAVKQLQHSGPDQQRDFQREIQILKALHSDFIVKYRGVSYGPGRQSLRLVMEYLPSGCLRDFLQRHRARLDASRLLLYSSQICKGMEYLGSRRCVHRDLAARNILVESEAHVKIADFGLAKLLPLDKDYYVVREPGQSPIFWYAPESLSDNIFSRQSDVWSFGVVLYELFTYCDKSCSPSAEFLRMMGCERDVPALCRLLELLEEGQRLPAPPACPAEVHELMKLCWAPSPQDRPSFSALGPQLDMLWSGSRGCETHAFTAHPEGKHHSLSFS

## O=C(CN1CCOCC1)Nc1cccc(-c2nc(-c3c[nH]c(C(=O)N4CCCC4)c3)cs2)c1 [7A, 2-morpholino-N-(3-(4-(5-(pyrrolidine-1-carbonyl)-1H-pyrrol-3-yl)thiazol-2-yl)phenyl)acetamide]
[1]
  IC50: 6.2 µM
CYP
  CYP inhibition: >10
Solubility, turbidity
  solubility: 60 to 80 µM (≈ 27.9 to 37.2 µg/mL)
JAK3
  Ki: 0.795 µM
